# Assay results from PMC8408311 (Diabetologia, 2021).
# Key:
# C2C12 myotubes = assay: C2-ceramide recycling and insulin response in C2C12 myotubes; assay type: cell-based, mouse
# [1] = tested on: people with T2D inadequately controlled with diet and exercise; assay: SURPASS-1 trial; assay type: in vivo, human; conditions: across TZP doses
# [2] = SURPASS-5, add-on to insulin glargine in type 2 diabetes; conditions: range over 5, 10, 15 mg
# [3] = SURPASS-2, add-on to metformin in type 2 diabetes; assay type: in vivo, human; conditions: TZP range over 5-15 mg; SEMA 1 mg
# [4] = Tirzepatide single-dose PK in hepatic impairment; assay type: in vivo, human
# C57BL/6 mice = assay: High-fat diet-fed mice, 8 weeks of treatment; assay type: in vivo, mouse; conditions: HFD mice, 10mg/kg for 8 weeks
# [5] = 3-year prospective observational study of quadruple oral therapy in T2DM; assay type: in vivo, human; conditions: empagliflozin 25 mg/day, dapagliflozin 10 mg/day
# [6] = EMPA-REG OUTCOME, uric acid and gout analysis; assay type: in vivo, human
# [7] = VERTIS CV, analysis in older patients; assay type: in vivo, human
smiles,measurement,setting,value
"CCCCCCCCCCCCC/C=C/[C@@H](O)[C@H](CO)NC(C)=O [C2cer, C2-Cer]",Effect on the insulin signal,C2C12 myotubes; at 25 mM glucose,inhibited completely the insulin signal
"CC[C@H](C)[C@H](NC(=O)[C@H](CC(C)C)NC(=O)[C@H](Cc1c[nH]c2ccccc12)NC(=O)[C@H](CCC(N)=O)NC(=O)[C@@H](NC(=O)[C@H](Cc1ccccc1)NC(=O)[C@H](C)NC(=O)[C@H](CCCCNC(=O)COCCOCCNC(=O)COCCOCCNC(=O)CC[C@H](NC(=O)CCCCCCCCCCCCCCCCCCC(=O)O)C(=O)O)NC(=O)[C@H](CCC(N)=O)NC(=O)[C@H](C)NC(=O)[C@@H](NC(=O)[C@H](CCCCN)NC(=O)[C@H](CC(=O)O)NC(=O)[C@H](CC(C)C)NC(=O)C(C)(C)NC(=O)[C@@H](NC(=O)[C@H](CO)NC(=O)[C@H](Cc1ccc(O)cc1)NC(=O)[C@H](CC(=O)O)NC(=O)[C@H](CO)NC(=O)[C@@H](NC(=O)[C@H](Cc1ccccc1)NC(=O)[C@@H](NC(=O)CNC(=O)[C@H](CCC(=O)O)NC(=O)C(C)(C)NC(=O)[C@@H](N)Cc1ccc(O)cc1)[C@@H](C)O)[C@@H](C)O)[C@@H](C)CC)[C@@H](C)CC)C(C)C)C(=O)N[C@@H](C)C(=O)NCC(=O)NCC(=O)N1CCC[C@H]1C(=O)N[C@@H](CO)C(=O)N[C@@H](CO)C(=O)NCC(=O)N[C@@H](C)C(=O)N1CCC[C@H]1C(=O)N1CCC[C@H]1C(=O)N1CCC[C@H]1C(=O)N[C@@H](CO)C(N)=O [TZP, Tirzepatide]",Diarrhoea,[1],12-14%
same,Nausea,[1],12-18%
same,"Diarrhoea, patients reporting",[2],12-21%
same,Incidence of hypoglycaemia (blood glucose <3.0 mmol/L) or severe hypoglycaemia,[2],14-19%
same,"Nausea, patients reporting",[2],13-18%
same,"Vomiting, patients reporting",[2],7-13%
same,Diarrhoea,[3],13-16%
same,Nausea,[3],17-22%
same,Vomiting,[3],6-10%
CC[C@H](C)[C@H](NC(=O)[C@H](CC(C)C)NC(=O)[C@H](Cc1c[nH]c2ccccc12)NC(=O)[C@H](CCC(N)=O)NC(=O)[C@@H](NC(=O)[C@H](Cc1ccccc1)NC(=O)[C@H](C)NC(=O)[C@H](CCCCNC(=O)COCCOCCNC(=O)COCCOCCNC(=O)CC[C@H](NC(=O)CCCCCCCCCCCCCCCCCCC(=O)O)C(=O)O)NC(=O)[C@H](CCC(N)=O)NC(=O)[C@H](C)NC(=O)[C@@H](NC(=O)[C@H](CCCCN)NC(=O)[C@H](CC(=O)O)NC(=O)[C@H](CC(C)C)NC(=O)C(C)(C)NC(=O)[C@@H](NC(=O)[C@H](CO)NC(=O)[C@H](Cc1ccc(O)cc1)NC(=O)[C@H](CC(=O)O)NC(=O)[C@H](CO)NC(=O)[C@@H](NC(=O)[C@H](Cc1ccccc1)NC(=O)[C@@H](NC(=O)CNC(=O)[C@H](CCC(=O)O)NC(=O)C(C)(C)NC(=O)[C@@H](N)Cc1ccc(O)cc1)[C@@H](C)O)[C@@H](C)O)[C@@H](C)CC)[C@@H](C)CC)C(C)C)C(=O)N[C@@H](C)C(=O)NCC(=O)NCC(=O)N1CCC[C@H]1C(=O)N[C@@H](CO)C(=O)N[C@@H](CO)C(=O)NCC(=O)N[C@@H](C)C(=O)N1CCC[C@H]1C(=O)N1CCC[C@H]1C(=O)N1CCC[C@H]1C(=O)N[C@@H](CO)C(N)=O [Tirzepatide],median tmax,[4]; across all groups,no change
same,geometric least squares mean t1/2,[4]; control and hepatic impairment groups,similar
COc1ccc(/C=C/C(=O)c2c(-c3ccccc3)c3ccccc3[nH]c2=O)cc1 [ceranib-2],Accumulation in total endogenous Cer content,"C2C12 myotubes; 2 h treatment, ceranib-2 alone",50%
"OC[C@H]1O[C@@H](c2ccc(Cl)c(Cc3ccc(O[C@H]4CCOC4)cc3)c2)[C@H](O)[C@@H](O)[C@@H]1O [empagliflozin, Empagliflozin]",Body weight,C57BL/6 mice,40 ± 0.9 g
same,Fat mass,C57BL/6 mice,8.5 ± 1.5 g
same,Change in body weight at 3 years,[5],-4.5 ± 2.5 kg
same,Change in fasting plasma glucose at 3 years,[5],-59.3 ± 53.3 mg/dL
same,Hazard ratio (95% CI) for gout flare or initiation of a drug for gout vs placebo,[6]; pooled empagliflozin,"0.67 (0.53, 0.85)"
same,Patients with a gout flare or initiation of a drug for gout,"[6]; pooled empagliflozin, patients not on UA lowering medication at baseline",3.6%
same,"Serum uric acid, adjusted mean (95% CI) treatment difference vs placebo","[6]; week 52, baseline UA levels ≥6 mg/dL","−0.46 (−0.55, −0.38) mg/dL"
same,"Serum uric acid, adjusted mean (95% CI) treatment difference vs placebo","[6]; week 52, pooled 10 and 25 mg/day","−0.37 (−0.42, −0.31) mg/dL"
CCOc1ccc(Cc2cc([C@]34OC[C@](CO)(O3)[C@@H](O)[C@H](O)[C@H]4O)ccc2Cl)cc1 [ertugliflozin],Incidence of hypovolemia AEs,[7]; patients ≥65 yrs,5.3%
same,Incidence of hypovolemia AEs,[7]; patients ≥75 yrs,6.9%
